Measured values as given in patent EP2092932A2, “Processes to pre-treat hair with organic solvents” (The Procter and Gamble Company, priority 2006, dated 2008).

Test: Hair treatment protocol: solvent pre-treatment before oxidative dyeing, colour strength K/S measured by spectrophotometer
Settings: for K/.S vs. DI Water: switch soaked 5 minutes in neat solvent, then level 3 oxidative hair colorant (Nice n' Easy) 30 minutes at 30°C, dye uptake change vs. DI water

SMILES	K/.S vs. DI Water [%]	K/S vs. DI Water (Glycerine Content 10 % wt. in deionised water as pre-treatment composition) [%]	K/S vs. DI Water (Glycerine Content 25 % wt. in deionised water as pre-treatment composition) [%]	K/S vs. DI Water (Glycerine Content 50 % wt. in deionised water as pre-treatment composition) [%]	K/S vs. DI Water (Glycerine Content 70 % wt. in deionised water as pre-treatment composition) [%]
OCCOCCO [Diethyleneglycol]	-50	–	–	–	–
OCC(O)CO [Glycerine]	-40	-2	-4	-20	-43
